Experimental data from PubChem BioAssay (NCI).
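Exposure lasted 48 hours, with cells grown in 96-well plates and compounds tested at five concentrations. At the GI50, growth is halved. TGI: concentration producing complete growth inhibition.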

Key:
Experiment in all cases: DTP human tumour cell line panel, 48 h
RXF 393 renal = tested on: RXF 393 renal
HCT-15 colon = tested on: HCT-15 colon
UACC-62 melanoma = tested on: UACC-62 melanoma
SF-268 CNS = tested on: SF-268 CNS
SK-MEL-2 melanoma = tested on: SK-MEL-2 melanoma
OVCAR-8 ovarian = tested on: OVCAR-8 ovarian
HOP-62 NSCLC = tested on: HOP-62 NSCLC
EKVX NSCLC = tested on: EKVX NSCLC
HCC-2998 colon = tested on: HCC-2998 colon

| Structure (SMILES) | GI50 (RXF 393 renal) [µM] | TGI (RXF 393 renal) [µM] | GI50 (HCT-15 colon) [µM] | TGI (HCT-15 colon) [µM] | GI50 (UACC-62 melanoma) [µM] | TGI (UACC-62 melanoma) [µM] | GI50 (SF-268 CNS) [µM] | TGI (SF-268 CNS) [µM] | GI50 (SK-MEL-2 melanoma) [µM] | TGI (SK-MEL-2 melanoma) [µM] | GI50 (OVCAR-8 ovarian) [µM] | TGI (OVCAR-8 ovarian) [µM] | GI50 (HOP-62 NSCLC) [µM] | TGI (HOP-62 NSCLC) [µM] | GI50 (EKVX NSCLC) [µM] | TGI (EKVX NSCLC) [µM] | GI50 (HCC-2998 colon) [µM] | TGI (HCC-2998 colon) [µM] |
| --- | --- | --- | --- | --- | --- | --- | --- | --- | --- | --- | --- | --- | --- | --- | --- | --- | --- | --- |
| COc1ccc2c(c1)O/C(=C\c1cccc(OCC(=O)Nc3nc(C)c(C)s3)c1)C2=O | 1.06 | 2.75 | 6.76 | > 100 | 16.5 | > 100 | 0.638 | 1.4 | 1.68 | 3.22 | 4.7 | > 100 | 0.542 | 1.13 | 8.42 | > 54.1 | 9.43 | > 100 |
| Cn1cncc1-c1c(F)cncc1NC(=O)c1c(N)nn2cc(F)cnc12 | 0.278 | 16.8 | 0.18 | > 100 | 2.22 | 6.9 | 4.04 | 46.2 | 0.0751 | 0.397 | 5.83 | > 100 | 5.21 | > 100 | 5.18 | > 100 | 0.0612 | > 100 |
| Cc1cn2c(/C=N/N=C(N)N)c(-c3ccncc3)nc2s1 | 14.9 | 29.8 | 44.1 | > 100 | 19 | 34.1 | 16.7 | 30.7 | 28.3 | > 100 | 14.7 | 30.9 | 14.9 | 28.1 | 12.5 | 26.8 | 14.6 | 27.7 |
| NC(CSC(c1ccccc1)(c1ccccc1)c1ccc(F)cc1)C(=O)O (configuration not stated) | 0.414 | – | 0.511 | > 100 | 0.408 | – | 0.505 | 35.1 | 1.95 | – | 0.493 | 41.7 | 3.04 | > 85.6 | 0.525 | > 74.2 | 0.438 | 11.5 |
| CC(=O)O[C@H](C[C@H](C(C)C)N(C)C(=O)[C@@H](NC(=O)[C@H]1CCCCN1C)C(C)C)c1cccc(C(=O)N[C@@H](Cc2ccccc2)C[C@H](C)C(=O)O)n1 | 0.0225 | > 25 | 0.219 | > 25 | 0.0276 | > 25 | 0.05 | > 25 | 0.0159 | > 25 | 0.0475 | > 25 | 0.0648 | > 25 | 0.255 | > 25 | 0.0544 | > 25 |
| Nc1ccccc1C(=O)NC(=O)Nc1ccc(Oc2ncc(Br)cn2)c(Cl)c1 | – | 0.458 | – | 22.6 | 0.00797 | 4.33 | – | 18.9 | – | 5.65 | – | 4.77 | – | 4.03 | 0.0198 | 29.6 | – | 0.19 |
| N#C/C(=C\c1ccccc1)C(NO)Nc1ccccc1 (configuration not stated) | – | > 100 | – | > 100 | – | > 100 | – | > 100 | – | > 100 | – | > 100 | – | > 100 | – | > 100 | – | > 100 |
| O=C(N/C(=C/c1cccc([N+](=O)[O-])c1)c1nc2ccc(Cl)cc2[nH]1)c1ccccc1 | – | 39.9 | – | > 100 | – | 33.5 | – | > 100 | – | 50.3 | – | 30.6 | – | 62.5 | – | 25.3 | – | 70.4 |
| O=C(/C=C\n1cnc(-c2cc(C(F)(F)F)cc(C(F)(F)F)c2)n1)N1CC(F)(F)C1 | 0.226 | 1.09 | 0.651 | 4.86 | 1.17 | 9.2 | 0.254 | 2.48 | 0.154 | 1.58 | 0.442 | > 11.8 | 0.57 | 3.46 | 0.953 | 14.6 | 0.729 | 4.42 |
| O=C(CN(/C=C/C(=O)C(F)(F)F)c1ccccc1)c1ccc(Cl)cc1 | 17.1 | 42.6 | 19.2 | 46 | 13.1 | 25.8 | 18.9 | 38.8 | 19.2 | 43.9 | 18.6 | 45.5 | 17.2 | 31.8 | 40 | > 100 | 14.7 | 28.5 |
| COc1ccc(-c2nn3ncccc3c2-c2ccnc(Nc3ccc4c(c3)OCCO4)n2)cc1 | 3.27 | > 25 | 6.89 | > 25 | 5.23 | > 25 | 11.1 | > 25 | 7.39 | > 21 | 7.3 | > 25 | 9.64 | > 25 | 9.61 | > 25 | 11 | > 25 |
| NCCOc1ncccc1/C=C1\c2ccccc2-c2ccc([N+](=O)[O-])cc21 | 0.171 | 0.443 | 0.0266 | 0.871 | 0.0784 | 0.386 | 0.0827 | 0.619 | 0.314 | 0.754 | 0.0686 | 0.705 | 0.0261 | 0.133 | 0.116 | 0.474 | 0.137 | 0.322 |
| CCc1nc2cc(/C=C/C(=O)NO)ccc2c(=O)n1CCc1ccc(OC)cc1 | 1.74 | 4.74 | 3.24 | > 100 | 1.59 | 4.33 | 2.44 | 13.1 | 3.66 | 24.9 | 2.27 | 15.5 | 2.45 | 7.68 | 3.91 | 43.9 | 4.06 | 62.1 |
| CCn1c(=N)sc2nc3ccccc3n2c1=O | – | > 100 | – | > 100 | – | > 100 | – | > 100 | – | > 100 | – | > 100 | – | > 100 | – | > 100 | – | > 100 |
| COc1cc(-c2cc3ncccc3c3[nH]c(=O)c4cccnc4c23)cc(OC)c1OC | 0.818 | 26.2 | 0.683 | > 100 | 0.496 | 30.3 | 2.16 | > 100 | 0.833 | > 100 | 2.51 | > 100 | 7.76 | > 100 | 0.818 | > 100 | 2.08 | > 100 |
| O=C(Nc1ccc2c(c1)OCCO2)C(=O)c1c[nH]c2ccccc12 | 2.59 | 11.1 | 0.967 | > 100 | 1.43 | > 100 | 1.98 | 37.5 | 2.62 | 32.9 | 2.37 | 35.7 | 2.9 | 21.2 | 5.37 | > 100 | 1.37 | > 100 |
| C=C(CN1c2ccccc2Sc2ccccc21)c1ccc(C(=O)Nc2ccccc2N)cc1 | > 100 | > 100 | > 42.5 | > 100 | 93 | > 100 | 25.7 | > 100 | > 100 | > 100 | > 80.4 | > 100 | > 46.7 | > 100 | > 86 | > 100 | 14.6 | > 86.3 |
| CC[C@@H](O)C[C@H]1CCC[C@@]2(C[C@@H]3OC(=O)/C=C/[C@@](C)(O)[C@@H](O)[C@H](C)[C@@H](O)[C@H](OC4CCC(N(C)C)C(C)O4)[C@@H](O)[C@](C)(O)CCCCC/C=C/[C@@H]4CC(C)(C)O[C@@]4(O)C[C@H](O2)[C@H]3C)O1 (some centres not stated) | – | 34.6 | – | 29.2 | – | 21.8 | – | 35.2 | – | 22.7 | – | 20.3 | – | 26.2 | – | 19.1 | – | 17.5 |
| CCOC(=O)C#Cc1c(C(=O)OCC)nnn1[C@@H]1O[C@H](CO)[C@H]2OC3(CCCCC3)O[C@H]21 | 1.8 | 3.46 | 1.87 | 3.53 | 2.02 | 4.55 | 14.3 | 34.6 | 17.7 | 34 | 3.81 | 13.2 | 17.7 | 33.7 | 15.6 | 30.1 | 18 | 32.8 |
| Cc1noc(C)c1-c1cnc2c(-c3ccc(C(=O)O)cc3)cn([C@@H](C)c3ccccn3)c2c1 | 2.4 | 34.6 | 0.418 | > 100 | 0.0954 | 20.2 | 9.04 | > 100 | 7.02 | > 100 | 2.89 | > 100 | 0.555 | > 100 | 0.58 | > 100 | 0.966 | 10.9 |
| CCc1nn2ncccc2c1-c1ccnc(NC2CC2)n1 | > 23.4 | > 25 | > 25 | > 25 | > 25 | > 25 | > 25 | > 25 | > 25 | > 25 | > 25 | > 25 | > 25 | > 25 | > 25 | > 25 | > 25 | > 25 |
